# From ChEMBL document CHEMBL4043196, “Efficient synthesis of the GABAA receptor agonist trans-4-aminocrotonic acid (TACA)” (Bioorg Med Chem Lett, 2017)
# Calls of active or inactive are those of the source. The calls are words filed in the database; no cut-off is given here.
# Assays:
# [1] = tested on: Haemonchus contortus; test: Agonist activity at Heaemonchus contortus UNC-49B/C GABAA receptor expressed in Xenopus laevis oocytes at 500 uM by two-electrode voltage-clamp method; assay type: cell-based
# [2] = Agonist activity at Heaemonchus contortus UNC-49B/C GABAA receptor expressed in Xenopus laevis oocytes by two-electrode voltage-clamp method; assay type: cell-based; conditions: Haemonchus contortus
Compound,Activity [1],EC50 [2]
NCC(Br)CC(=O)O (stereo not drawn),inactive,
NCC(Cl)CC(=O)O (stereo not drawn),inactive,
NC/C=C/C(=O)O [t-4-AMINOCROTONIC ACID (TACA)],,290 µM
